Values of other authors, collected in patent US9440985B2, “Tricyclic derivatives of N,N′-substituted 3,7-diazabicyclo [3.3.1]nonanes and drugs based thereon” (priority 2011, dated 2016).

What was measured:
AMPA receptors [1] = details: adult rats; 0.3-3 mg/kg
AMPA receptors [2] = details: high concentrations
AMPA receptors [3] = test system: AMPA receptors

SMILES | social memory (AMPA receptors [1]) | concentration at which the clinical effect is manifested (AMPA receptors [2]) | NMDA-mediated signals (AMPA receptors [3]) | synaptic signal (AMPA receptors [3]; several hippocampus sites)
O=C(c1ccc2c(c1)OCCO2)N1CCCCC1 [CX546] | improves social memory |  |  | 
COc1ccc(C(=O)N2CCCC2=O)cc1 [aniracetam] |  | 0.1 mM | no effect | enhances the synaptic signal
